According to patent US7371742B2, “Porphyrin derivatives for photodynamic therapy” (Institut Curie, priority 2001, dated 2008):
Read-outs that look alike come from different tables or passages of the source.

How the values were obtained:
[1] = tested on: tumoral cells; assay: Antitumoral photodynamic activity in general (remarks on Tables B and C); format: cell-based, human
Description: The main results for antitumoral effects are reported in Table B, showing the rate of photocytotoxicity. The higher the percentage, the higher the antitumnoral or antiviral effect.
Concerning the antitumoral activity, the compounds obtained by the inventors are active, under appropriate irradiation indicated towards tumoral cells in which these derivatives are able to accumulate.

[2] = tested on: RBY-79 (indifferently named Y-79) cells; assay: RBY-79 (Y79) cell cytotoxicity / photocytotoxicity; conditions: for Photocytotoxicity RBY-79, concentration giving 50%: 50% effect, with light
Description: Columns HT29 and Y79 (═RBY79), without light, correspond to the cytotoxic activity.

[3] = tested on: human colic adenocarcinoma cell line HT29; assay: HT29 cell survival (MTT assay) after 24 h incubation, with or without light irradiation; conditions: for Photocytotoxicity HT 29, concentration giving 50%: 50% effect, with light
Description: HT29 cells were cultivated in Dulbecco's MEM supplemented with 10% fetal calf serum (FCS). Cells from log-phase culture were seeded in 24-microwell plates (1 mL-5×10^4 cells/well) and kept at 37° C. in a water-jacketed incubator for 2 days under an air/CO2 atmosphere (5% CO2). Tested compounds, in DMSO solution, were added under the minimum volume (5 μL) to reach a concentration ranging from 0.1 to 10 μg/mL. Controls cells received 5 μL of DMSO free of dye. Plates were incubated 24 h, then medium was removed and the cells were washed twice with phosphate buffered saline (PBS) before addition of fresh medium free of drug and irradiation with visible light using a home made “light box” giving a fluence of 3.8 mW/cm^2 on the whole visible spectrum. Irradiation with red light was carried out using the same device fitted with an orange filter (0% T at 520 nm and 80% T at 590 nm) leading to a fluence of 2 mW/cm^2.
Plates were reincubated for 3 days before evaluation of the cell survival using the MTT assay (T. Mosmann, “Rapid calorimetric assay for cellular growth and survival. Application to proliferation assays”. J. Immunol. Methods 65,55-63,1983) using 30 min incubation with 100 μg well of 3-[4,5-dimethylthiazol-2-yl]-2,5-diphenyl tetrazolium bromide (MTT, Sigma). After removal of the medium, formazan crystals were taken up with 100 μL of DMSO and absorbance at 540 ni was measured with a Bio-Rad microplate reader (model 450); survival was expressed as % of untreated controls.

[4] = tested on: L-1210 cells; assay: Cytotoxicity L-1210 (no light), cytostatic activity; format: cell-based, human; conditions: for Cytotoxicity L-1210 (no light), concentration giving 50%: 50% effect; for Cytotoxicity L-1210 (no light), cell marked Red: cell prints 'Red', concentration not given
Description: Column L1210 corresponds to the cytostatic activity.

[5] = tested on: FT-1 cells; assay: FT-1 cell photocytotoxicity; format: cell-based, human; conditions: for Photocytotoxicity FT-1, Red: Red light, concentration not given
[6] = patient, cited from earlier work; for period of photosensitivity: after treatment
[7] = tested on: A549; assay: A549 photocytotoxicity (entries inside Table B cells); format: cell-based; conditions: A549 named inside the cell; concentration not given
[8] = read-out: Y79 IC50 (μM) With 2J/cm^2, irradiation with filter (0% T at 520 nm, 80% T at 590 nm), 3.5 mW/cm^2, 10 min
[9] = read-out: Y79 IC50 (μM) without light, without light (cytotoxic activity)
[10] = read-out: HT 29 IC50 (μM) with 2J/cm^2, irradiation with filter (0% T at 520 nm, 80% T at 590 nm), 3.5 mW/cm^2, 10 min
[11] = read-out: HT 29 IC50 (μM) without light, without light (cytotoxic activity)
[12] = without light, remark of the inventors

5,10,15-tri(para-O-diethyleneglycoloxyphenyl)-20-phenylporphyrin [Compound 75]
biological activities (in words) ([1]; non glycosylated analogue compared with compound 67): totally inactive
IC50 [2, 8]: 1.2 µM
IC50 [2, 9]: 4.5 µM
IC50 [3, 10]: 4.3 µM
IC50 [3, 11]: 6.5 µM

O[C@@H]1[C@@H](O)[C@H](Sc2c(F)c(F)c(-c3c4nc(c(-c5c(F)c(F)c(S[C@@H]6OC[C@@H](O)[C@H](O)[C@H]6O)c(F)c5F)c5ccc([nH]5)c(-c5c(F)c(F)c(S[C@@H]6OC[C@@H](O)[C@H](O)[C@H]6O)c(F)c5F)c5nc(c(-c6c(F)c(F)c(F)c(F)c6F)c6ccc3[nH]6)C=C5)C=C4)c(F)c2F)OC[C@H]1O [Compound 28, TPP F4(p-S-β-XylOH)3]
Cytotoxicity L-1210 (no light), concentration giving 50% [4]: 50% 9 μg/ml
Photocytotoxicity RBY-79, concentration giving 50% [2]: 1.7 µg/mL
IC50 [2, 8]: 1.2 µM
IC50 [2, 9]: > 10 µM
Photocytotoxicity HT 29, concentration giving 50% [3]: 50% 3.7 μg/ml
IC50 [3, 10]: 2.6 µM
IC50 [3, 11]: > 10 µM

OC[C@H]1O[C@@H](OCCOc2cccc(-c3c4nc(c(-c5cccc(OCCO[C@@H]6O[C@H](CO)[C@@H](O)[C@H](O)[C@H]6O)c5)c5ccc([nH]5)c(-c5cccc(OCCO[C@@H]6O[C@H](CO)[C@@H](O)[C@H](O)[C@H]6O)c5)c5nc(c(-c6cccc(OCCO[C@@H]7O[C@H](CO)[C@@H](O)[C@H](O)[C@H]7O)c6)c6ccc3[nH]6)CC5)C=C4)c2)[C@H](O)[C@@H](O)[C@@H]1O [Compound 58]
Cytotoxicity L-1210 (no light), cell marked Red [4]: Red, 0, A549%
Photocytotoxicity FT-1, Red [5]: Red 0%

porfimer sodium [Photofrin ®, reference compound]
time the drug stays in the skin after treatment ([6]; makes sensitive to strong light): approximately 30 days
period of photosensitivity [6]: several weeks
IC50 ([2]; read-out: Y79 IC50 With 2J/cm^2, estimated concentration, with 2J/cm^2, estimated for mean molecular weight 1178.55 dimer form): 2.6 µM
IC50 ([2]; read-out: Y79 IC50 without light, estimated concentration, without light, estimated for mean molecular weight 1178.55 dimer form): 3.9 µM
concentration at which cytotoxic for the Y79 cells ([2]; remark of the inventors): more than 3,9 μM
Y79 IC50 With 2J/cm^2, in μg/ml ([2]; with 2J/cm^2): 3 µg/mL
Y79 IC50 without light ([2]; without light): 4.6 mg/L
cytotoxic for Y79 (in words) [2, 12]: cytotoxic
IC50 ([3]; read-out: HT 29 IC50 with 2J/cm^2, estimated concentration, with 2J/cm^2, estimated for mean molecular weight 1178.55 dimer form): 5.1 µM
HT 29 IC50 with 2J/cm^2, in μg/ml ([3]; with 2J/cm^2): 6 µg/mL
HT 29 IC50 without light, in μg/ml ([3]; without light): Inactive for 10 μg/ml

OC[C@H]1O[C@H](SCc2ccc(-c3c4nc(c(-c5ccc(CS[C@H]6O[C@H](CO)[C@@H](O)[C@H](O)[C@@H]6O)cc5)c5ccc([nH]5)c(-c5ccc(CS[C@H]6O[C@H](CO)[C@@H](O)[C@H](O)[C@@H]6O)cc5)c5nc(c(-c6ccc(CS[C@H]7O[C@H](CO)[C@@H](O)[C@H](O)[C@@H]7O)cc6)c6ccc3[nH]6)C=C5)C=C4)cc2)[C@@H](O)[C@@H](O)[C@@H]1O [Compound 66, TPP(p-CH2-S-α-MannOH)4]
Cytotoxicity L-1210 (no light), % at 10 μg/ml [4]: 0% 10 μg/ml
Photocytotoxicity RBY-79, % at 10 μg/ml ([2]; 10 μg/ml): 20%
IC50 [2, 8]: 15 µM
IC50 [2, 9]: 28 µM
Photocytotoxicity HT 29, % at 10 μg/ml ([3]; 10 μg/ml): 40%
IC50 [3, 10]: 10 µM
IC50 [3, 11]: 21 µM

O[C@@H]1[C@@H](O)[C@H](Sc2c(F)c(F)c(-c3c4nc(c(-c5c(F)c(F)c(S[C@@H]6OC[C@@H](O)[C@H](O)[C@H]6O)c(F)c5F)c5ccc([nH]5)c(-c5c(F)c(F)c(S[C@@H]6OC[C@@H](O)[C@H](O)[C@H]6O)c(F)c5F)c5nc(c(-c6c(F)c(F)c(S[C@@H]7OC[C@@H](O)[C@H](O)[C@H]7O)c(F)c6F)c6ccc3[nH]6)C=C5)C=C4)c(F)c2F)OC[C@H]1O [Compound 27, TPP F4(p-S-β-XylOH)4]
Cytotoxicity L-1210 (no light), concentration giving 50% [4]: 14 µg/mL
Photocytotoxicity RBY-79, concentration giving 50% [2]: 50% 1.6 μg/ml
IC50 [2, 8]: 1 µM
Y79 IC50 (μM) without light ([2]; without light (cytotoxic activity)): Inactive for μM
Photocytotoxicity HT 29, concentration giving 50% [3]: 7.5 µg/mL
IC50 [3, 10]: 5 µM
IC50 [3, 11]: > 10 µM

TPP F4(p-S-β-GluOH)3 [Compound 26]
Cytotoxicity L-1210 (no light), % at 10 μg/ml [4]: 20% 10 μg/ml
active when activated by light towards tumoral cells (in words) ([1]; under appropriate irradiation): active
Photocytotoxicity RBY-79, concentration giving 50% [2]: 3.3 µg/mL
IC50 [2, 8]: 2.2 µM
IC50 [2, 9]: > 10 µM
Photocytotoxicity HT 29, concentration giving 50% [3]: 50% 2 μg/ml
IC50 [3, 10]: 1.7 µM
IC50 [3, 11]: 6.5 µM
cytotoxic for HT29 (in words) [3, 12]: cytotoxic

benzoporphyrin derivative monoacid ring A [Verteporfin]
period of photosensitivity [6]: one day

OC[C@H]1O[C@@H](OCCOc2cccc(-c3c4nc(c(-c5cccc(OCCO[C@@H]6O[C@H](CO)[C@@H](O)[C@H](O)[C@H]6O)c5)c5ccc([nH]5)c(-c5cccc(OCCO[C@@H]6O[C@H](CO)[C@@H](O)[C@H](O)[C@H]6O)c5)c5nc(c(-c6cccc(OCCO[C@@H]7O[C@H](CO)[C@@H](O)[C@H](O)[C@H]7O)c6)c6ccc3[nH]6)C=C5)C=C4)c2)[C@H](O)[C@@H](O)[C@@H]1O [Compound 61]
Cytotoxicity L-1210 (no light), cell marked Red [4]: Red, 0%
Photocytotoxicity FT-1, Red [5]: Red 0%
Photocytotoxicity A549 [7]: A549, 0%

TPP(p-OC3-S-β-GluOH)3 [Compound 23]
Cytotoxicity L-1210 (no light), % at 10 μg/ml [4]: 0% 10 μg/ml
Photocytotoxicity RBY-79, concentration giving 50% [2]: 3 µg/mL
IC50 [2, 8]: 6.5 µM
IC50 [2, 9]: > 10 µM
Photocytotoxicity HT 29, concentration giving 50% [3]: 6 µg/mL
IC50 [3, 10]: 11 µM
IC50 [3, 11]: 13 µM

OC[C@H]1O[C@H](SCCOCCOc2ccc(-c3c4nc(c(-c5ccc(OCCOCCS[C@H]6O[C@H](CO)[C@@H](O)[C@H](O)[C@@H]6O)cc5)c5ccc([nH]5)c(-c5ccc(OCCOCCS[C@H]6O[C@H](CO)[C@@H](O)[C@H](O)[C@@H]6O)cc5)c5nc(c(-c6ccccc6)c6ccc3[nH]6)C=C5)C=C4)cc2)[C@@H](O)[C@@H](O)[C@@H]1O [Compound 68, TPP(p-O-DEG-S-α-Mann)3]
Cytotoxicity L-1210 (no light), % at 10 μg/ml [4]: 0% 10 μg/ml
Photocytotoxicity RBY-79, concentration giving 50% [2]: 1 µg/mL
IC50 [2, 8]: 1 ± 0.5 µM
IC50 [2, 9]: 6 ± 2 µM
Photocytotoxicity HT 29, concentration giving 50% [3]: 50% 4 μg/ml
IC50 [3, 10]: 5.8 ± 3 µM
IC50 [3, 11]: > 10 µM

OC[C@H]1O[C@@H](Sc2c(F)c(F)c(-c3c4nc(c(-c5c(F)c(F)c(S[C@@H]6O[C@H](CO)[C@@H](O)[C@H](O)[C@H]6O)c(F)c5F)c5ccc([nH]5)c(-c5c(F)c(F)c(S[C@@H]6O[C@H](CO)[C@@H](O)[C@H](O)[C@H]6O)c(F)c5F)c5nc(c(-c6c(F)c(F)c(S[C@@H]7O[C@H](CO)[C@@H](O)[C@H](O)[C@H]7O)c(F)c6F)c6ccc3[nH]6)C=C5)C=C4)c(F)c2F)[C@H](O)[C@@H](O)[C@@H]1O [Compound 25, TPP F4(p-S-β-GluOH)4]
Cytotoxicity L-1210 (no light), % at 10 μg/ml [4]: 18% 10 μg/ml
Photocytotoxicity RBY-79, concentration giving 50% [2]: inactive
IC50 [2, 8]: 4 µM
IC50 [2, 9]: > 10 µM
Photocytotoxicity HT 29, concentration giving 50% [3]: inactive
IC50 [3, 10]: > 10 µM
IC50 [3, 11]: > 10 µM

OC[C@H]1O[C@@H](Oc2cccc(-c3c4nc(c(-c5cccc(O[C@@H]6O[C@H](CO)[C@@H](O)[C@H](O)[C@H]6O)c5)c5ccc([nH]5)c(-c5cccc(O[C@@H]6O[C@H](CO)[C@@H](O)[C@H](O)[C@H]6O)c5)c5nc(c(-c6ccccc6)c6ccc3[nH]6)C=C5)C=C4)c2)[C@H](O)[C@@H](O)[C@@H]1O [Compound 60]
Photocytotoxicity FT-1 ([5]; concentration and light not given): 0%
Photocytotoxicity A549 [7]: A549, 20%

TPC(m-O-β-GluOH)4 [Compound 54]
Photocytotoxicity FT-1, Red [5]: 20%
Photocytotoxicity A549 [7]: 0, A549, 0%
IC50 [2, 8]: 3 ± 1.4 µM
IC50 [2, 9]: 3.9 ± 0.1 µM
cytotoxic for Y79 (in words) [2, 12]: cytotoxic
IC50 [3, 10]: 4.4 ± 0.1 µM
IC50 [3, 11]: > 15 µM

5,10,15-Tri(3-O-β-D-glucosylphenyl)-2,3-chlorin and 5,10,15-tri(3-O-β-D-glucosylphenyl)-7,8-chlorin [Compound 55]
Photocytotoxicity FT-1, Red [5]: 25%
Photocytotoxicity A549 [7]: A549, 10%
IC50 [2, 8]: 3.7 ± 1.8 µM
IC50 [2, 9]: 8 ± 7 µM
cytotoxic for Y79 (in words) [2, 12]: cytotoxic
Photocytotoxicity HT 29, Red ([3]; Red light, concentration not given): Red, 0%
IC50 [3, 10]: 5.7 ± 3 µM
IC50 [3, 11]: > 15 µM
